{
  "source": "patent US10328116B2",
  "about": "“Combinations of proteasome inhibitors and cyclic peptides” (BIG DNA LTD, priority 2014, dated 2019)",
  "key": {"20S proteasome": {"target": "20S proteasome (Homo sapiens, UniProt P20618+P28074)", "settings": "cited from earlier work"}, "DP54-Luc model": {"tested_on": "DP54-Luc model", "settings": "in vivo; cited from earlier work"}, "[1]": {"tested_on": "CWR22 human prostate cancer xenografts", "settings": "cited from earlier work"}, "Oci-Ly7-Luc": {"tested_on": "Oci-Ly7-Luc", "settings": "disseminated lymphoma; cited from earlier work"}, "[2]": {"tested_on": "WSU-DLCL2 lymphoma xenograft", "settings": "at MTD; cited from earlier work"}, "PHTX22L xenografts": {"tested_on": "PHTX22L xenografts", "settings": "MTD level treatment; cited from earlier work"}, "[3]": {"tested_on": "T47D breast cancer cell line", "experiment": "Sulforhodamine B viability, isobologram and combination index in T47D cells (Examples 4-5)", "assay_type": "cell-based", "settings": "single agent at its IC50", "protocol": "For assessment of combined BTZ and cilengitide toxicity, T47D cells were seeded at a density of 7500 cells/cm^2 in 96-well cell culture plates and incubated for 24 hours. Cilengitide was diluted to 20 μM in complete DMEM, then 3 serial tenfold dilutions of this were performed in complete DMEM (2 μM, 200 nM and 20 nM). Complete DMEM containing no cilengitide was provided for negative controls.\nThese dilutions (or DMSO for wells containing no BTZ) were added to aliquots of complete DMEM containing 0-20 μM cilengitide for a 1/150 dilution. Aliquots (0.1 mL) of each mixture were added to wells already containing 0.1 mL medium (in duplicate), resulting in a matrix of cilengitide (10 nM-10 μM) and/or BTZ (1 nM-10 μM) or neither agent (diluent only).\nOD570nm readings were divided by those resulting from negative control (diluent only) wells and expressed as a percentage. Three independent replicates of this experiment were carried out.\nThe isoboles were obtained similarly by extrapolation of points representing 50% reduction in viability from line graphs of % viability versus concentration of one agent at variable concentration with the other agent supplied at a fixed concentration. […]"}, "[4]": {"tested_on": "NCI H-929 human multiple myeloma cells", "experiment": "NCI-H929 sub-cutaneous xenograft mouse tumor model, 'high' bortezomib dose (Example 7)", "assay_type": "in vivo", "settings": "for Complete response (mice) / No response (mice) / Partial response (mice) / Total RR % (PR+CR): bortezomib 1 mg/kg IV biweekly, cilengitide 45 mg/kg IP QD, N = 10 mice per group", "excerpt": "This was then continued until Day 21.\nPartial response (PR) is defined as the first measurement of the tumor volume being 50% or less of its Day 1 volume for three consecutive measurements during the course of the study, and equal to or greater than 13.5 mm^3 for one or more of these three measurements. In a complete response (CR), the tumor volume was less than 13.5 mm^3 for three consecutive measurements during the course of the study. Total response rate (RR) is the sum of PR+CR. Treatment began on day 1 and was stopped on Day 21."}, "chymotrypsin-like sites": {"target": "chymotrypsin-like sites (Homo sapiens, UniProt P28074)", "sequence (P28074 60-263)": "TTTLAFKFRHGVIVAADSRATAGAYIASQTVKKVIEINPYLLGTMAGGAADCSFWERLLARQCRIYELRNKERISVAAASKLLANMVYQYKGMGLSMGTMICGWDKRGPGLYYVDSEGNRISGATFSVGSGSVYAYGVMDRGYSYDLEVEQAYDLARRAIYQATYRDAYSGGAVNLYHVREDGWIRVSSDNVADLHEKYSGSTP", "settings": "cited from earlier work"}, "HEK293 cells": {"tested_on": "HEK293 cells", "experiment": "Sulforhodamine B relative cell growth assay in HEK293 cells (Examples 1-3)", "assay_type": "cell-based", "settings": "HEK293 (αvβ3 +ve); 10 μM proteasome inhibitor, absence of cRGDfK", "experimental": "Established methodology was used to prepare 80-100% confluent monolayers of HEK293 cells in T75 flasks. Cells were cultured in DMEM (Lonza) supplemented with 10% FBS (Gibco), 2 mM L-glutamine, 100 U/mL penicillin and 100 μg/mL streptomycin (“complete DMEM”).\nThe cells in T75 flasks were trypsinised and resuspended in complete DMEM. The cells were counted using a Neubauer chamber and seeded at approximate density of 3×10^4 cells/cm^2 and 7500 cells/cm^2 in 96 well flat bottomed tissue culture plates (Corning) 0.1 mL cell suspension per well. Cells were incubated for 24 hours at 37° C./5% CO2 (humidified).\nTo provide a working stock, BTZ was diluted to 10 mM in DMSO. […]\nBriefly: medium was removed from wells and replaced with an equal volume of PBS. […] Optical density (OD570nm) was determined using an ELISA plate reader (Dynex MRX, Dynex Technologies).\nIn total, 5 replicates of the experiment were carried out. Cells treated with peptide/BTZ mixtures or control mixtures were incubated for 24 hours at 37° C./5% CO2 (humidified) then analysed by sulforhodamine B assay.\nThe average of the background measurements (i.e. no cells, medium only) was subtracted from each reading. ‘Ti’ is OD570nm following 24 hours treatment with drugs. […]\nUsing these equations, control cell growth is assigned a relative cell growth value of 100% and all cell growth values are calculated relative to this figure. […]"}, "[5]": {"settings": "phase II trials; heavily pretreated patient population; cited from earlier work"}, "[6]": {"tested_on": "chymotrypsin-like activity of the proteasome", "settings": "highest dose used in the phase I trial; cited from earlier work"}, "Cos7 cells": {"tested_on": "Cos7 cells", "experiment": "Sulforhodamine B relative cell growth assay in Cos7 cells (Example 2)", "assay_type": "cell-based", "settings": "COS-7 (αvβ3 −ve); 10 μM proteasome inhibitor, absence of cRGDfK"}, "[7]": {"tested_on": "NCI H-929 Multiple Myeloma Cell Line", "experiment": "NCI H-929 sub-cutaneous xenograft, varied BTZ dose, TGI and TTE (Example 8)", "assay_type": "in vivo, mouse", "settings": "endpoint day 18", "protocol": "Cilengitide or vehicle was supplied as daily intra-peritoneal injection (45 mg/kg). […] After this point, dosing was continued in groups receiving 0.2 mg/kg and 0.5 mg/kg BTZ±cilengitide until day 31 to allow comparative tumour growth delay (i.e. difference in time to endpoint (TTE). […] TTE was calculated as TTE=[log(endpoint volume)-b]/m where TTE is expressed in days, endpoint volume is expressed in mm^3, b is the intercept, and m is the slope of the line obtained by linear regression of a log-transformed tumour growth data set. TTE values were plotted in Kaplan-Meier diagrams (FIGS. 9 and 10)."}, "[8]": {"settings": "at maximum tolerated dose (MTD)"}},
  "note": "Read-outs that look alike come from different tables or passages of the source.",
  "data": [
    {"smiles": "CC(C)C[C@H](NC(=O)CNC(=O)c1cc(Cl)ccc1Cl)B(O)O", "note": "[Ixazomib, [(1R)-1-[[2-[(2,5-dichlorobenzoyl)amino]acetyl]amino]-3-methyl-butyl]boronic acid]", "values": [
      {"measurement": "proteasome dissociation half-life", "setting": "20S proteasome", "value": "approximately 18 minutes"},
      {"measurement": "release from the proteasome relative to bortezomib", "setting": "20S proteasome; faster than bortezomib", "value": "approximately 6 fold"},
      {"measurement": "alleviation of osteolytic bone disease", "setting": "DP54-Luc model", "value": "effective in the alleviation of osteolytic bone disease"},
      {"measurement": "anti-tumoral activity", "setting": "[1]; at half the MTD", "value": "more effective than bortezomib"},
      {"measurement": "anti-tumoral activity", "setting": "[1]; [8]", "value": "effective anti-tumoral activity"},
      {"measurement": "antitumoral effect", "setting": "Oci-Ly7-Luc", "value": "improved antitumoral effect compared with bortezomib"},
      {"measurement": "anti-tumoral activity", "setting": "[2]", "value": "significant anti-tumoral activity"},
      {"measurement": "anti-tumoral effect", "setting": "PHTX22L xenografts", "value": "only ixazomib was found to exhibit an anti-tumoral effect"}
    ]},
    {"smiles": "CC(C)[C@H]1C(=O)N[C@@H](CCCN=C(N)N)C(=O)NCC(=O)N[C@@H](CC(=O)O)C(=O)N[C@H](Cc2ccccc2)C(=O)N1C", "note": "[Cilengitide]", "values": [
      {"measurement": "CI (combination index)", "setting": "[3]", "value": 1.00},
      {"measurement": "Complete response (mice)", "setting": "[4]; Day 1", "value": 0},
      {"measurement": "No response (mice)", "setting": "[4]; Day 1", "value": 10},
      {"measurement": "Partial response (mice)", "setting": "[4]; Day 1", "value": 0},
      {"measurement": "Total RR % (PR+CR)", "setting": "[4]; Day 1", "value": 0, "unit": "%"},
      {"measurement": "Complete response (mice)", "setting": "[4]; Day 4", "value": 0},
      {"measurement": "No response (mice)", "setting": "[4]; Day 4", "value": 10},
      {"measurement": "Partial response (mice)", "setting": "[4]; Day 4", "value": 0},
      {"measurement": "Total RR % (PR+CR)", "setting": "[4]; Day 4", "value": 0, "unit": "%"},
      {"measurement": "Complete response (mice)", "setting": "[4]; Day 8", "value": 0},
      {"measurement": "No response (mice)", "setting": "[4]; Day 8", "value": 10},
      {"measurement": "Partial response (mice)", "setting": "[4]; Day 8", "value": 0},
      {"measurement": "Total RR % (PR+CR)", "setting": "[4]; Day 8", "value": 0, "unit": "%"},
      {"measurement": "Complete response (mice)", "setting": "[4]; Day 12", "value": 0},
      {"measurement": "No response (mice)", "setting": "[4]; Day 12", "value": 10},
      {"measurement": "Partial response (mice)", "setting": "[4]; Day 12", "value": 0},
      {"measurement": "Total RR % (PR+CR)", "setting": "[4]; Day 12", "value": 0, "unit": "%"},
      {"measurement": "Complete response (mice)", "setting": "[4]; Day 15", "value": 0},
      {"measurement": "No response (mice)", "setting": "[4]; Day 15", "value": 10},
      {"measurement": "Partial response (mice)", "setting": "[4]; Day 15", "value": 0},
      {"measurement": "Total RR % (PR+CR)", "setting": "[4]; Day 15", "value": 0, "unit": "%"},
      {"measurement": "Complete response (mice)", "setting": "[4]; Day 18", "value": 0},
      {"measurement": "No response (mice)", "setting": "[4]; Day 18", "value": 10},
      {"measurement": "Partial response (mice)", "setting": "[4]; Day 18", "value": 0},
      {"measurement": "Total RR % (PR+CR)", "setting": "[4]; Day 18", "value": 0, "unit": "%"},
      {"measurement": "Complete response (mice)", "setting": "[4]; Day 21", "value": 0},
      {"measurement": "No response (mice)", "setting": "[4]; Day 21", "value": 10},
      {"measurement": "Partial response (mice)", "setting": "[4]; Day 21", "value": 0},
      {"measurement": "Total RR % (PR+CR)", "setting": "[4]; Day 21", "value": 0, "unit": "%"}
    ]},
    {"smiles": "C[C@@]12OC(=O)[C@]1([C@@H](O)[C@@H]1C=CCCC1)NC(=O)[C@@H]2CCCl", "note": "[Marizomib]", "values": [
      {"measurement": "inhibition of the chymotrypsin-like sites", "setting": "chymotrypsin-like sites", "value": "up to 100%"}
    ]},
    {"smiles": "CC(C)C[C@H](NC(=O)[C@H](CCc1ccccc1)NC(=O)CN1CCOCC1)C(=O)N[C@@H](Cc1ccccc1)C(=O)N[C@@H](CC(C)C)C(=O)[C@@]1(C)CO1", "note": "[Carfilzomib]", "values": [
      {"measurement": "cell growth relative to untreated control cells", "setting": "HEK293 cells", "value": "greater activity than ixazomib, delanzomib and oprozomib"},
      {"measurement": "partial response rate", "setting": "[5]", "value": 24, "unit": "%"},
      {"measurement": "inhibition of the chymotrypsin-like activity of the proteasome in blood of patients", "setting": "[6]", "value": 88, "unit": "%"},
      {"measurement": "cell growth relative to untreated control cells", "setting": "Cos7 cells", "value": "greater activity than ixazomib, delanzomib and oprozomib"}
    ]},
    {"smiles": "CC(C)C[C@H](NC(=O)[C@H](Cc1ccccc1)NC(=O)c1cnccn1)B(O)O", "note": "[Bortezomib]", "values": [
      {"measurement": "proteasome dissociation half-life", "setting": "20S proteasome", "value": "approximately 110 minutes"},
      {"measurement": "anti-tumoral activity", "setting": "[1]; [8]", "value": "effective anti-tumoral activity"},
      {"measurement": "Tumour growth inhibition (TGI)", "setting": "[7]; 0.5 mg/kg BTZ and below, without cilengitide", "value": "virtually ineffective"},
      {"measurement": "Tumour growth inhibition (TGI)", "setting": "[7]; BTZ doses of 0.7 mg/kg and greater, biweekly i.v.", "value": "almost complete TGI"},
      {"measurement": "animals that relapsed (complete relapse)", "setting": "[4]; By Day 42, of 10 animals per group", "value": 3},
      {"measurement": "anti-tumoral activity", "setting": "[2]", "value": "ineffective"}
    ]}
  ]
}
